The values below come from patent publication US20040105857A1, “Methods and compositions for enhancing angiogenesis” (priority 2003, published 2004).

Assay [1] has as its system chick chorioallantoic membrane (CAM). Briefly: Angiogenesis assay in the chick chorioallantoic membrane (CAM) model, vessel branch point count. The settings on record: for induction of angiogenic response (vessel branch points): within a defined concentration range. It counts as in vivo. The procedure:
FIG. 1 depicts induction of angiogenesis by soluble L1-fusion protein containing the fourth, fifth, and sixth Ig-like domains of L1 (Ig 4-6). a. GST fusion proteins were made covering the entire extra-cellular domain of L1 and consisted of immunoglobulin like domains 1 through 3 (Ig1 3), immunoglobulin like domains 4 through 6 (Ig4-6), and FN type III like domains 1-5 (FN1 5). b. The L1-fusion proteins (Ig 1-3, Ig 4-6 or FN1-5) were tested for their ability to induce an angiogenic response in the chick chorioallantoic membrane (CAM) model. Filter discs each received 0.5 mg of Ig4-6 fusion protein ([…]) or equimolar amounts of the Ig 1-3, or FN1-5 fusion proteins. Negative or positive control groups received filter discs saturated with media alone or with bFGF respectively. Angiogenesis was quantified by counting the number of vessel branch points within the area of membrane immediately beneath the disc. The number of vessel branch points counted in the control group receiving media alone has been subtracted. Treatment groups consisted of a minimum of six embryos and experiments were performed on three separate occasions. c. […] Results obtained using bFGF or media alone are shown for comparison. Note that fine and highly branched angiogenic vessels can be distinguished from large preexisting vessels. Dotted lines delineate the area of the filter disc placed on the membrane. Excised membrane beneath and adjacent to the filter discs were photographed using an Olympus SZH10 Research Stereo microscope at 15×.
FIG. 2 depicts induction of angiogenesis by a L1-RGD peptide and by a function blocking antibody to β1 integrins. a. The L1 peptide PSITWRGDGRDLQEL or the mutant L1 peptide PSITWRADGRDLQEL were tested for their ability to induce an angiogenic response in the chick CAM model. b. Function blocking antibodies to chick avβ3 (LM609) or to chick β1-intgrins (CSAT) were also tested. […] Angiogenesis was quantified by counting the number of vessel branch points within the area of membrane immediately beneath the disc. The number of vessel branch points counted in the control group receiving media alone has been subtracted. c. […]
FIG. 3 depicts induction of angiogenesis by L1 cleavage products. a. […] Untreated and digested L1 (trypsin free) was then analyzed by SDS polyacrylamide gel electrophoresis (5-15% gradient). b. Sites of trypsin cleavage were determined by amino terminal sequencing and are shown schematically. c. […] Angiogenesis was quantified by counting the number of vessel branch points within the area of membrane immediately beneath the disc.
Angiogenesis assay. Angiogenesis was assessed using the chick chorioallantoic membrane (CAM) model which has been extensively described^54. […]

Assay [2] has as its system integrin. Briefly: Integrin-binding activity of mutant L1 peptide (data not shown).
Assay [3] has as its system HDMEC or ECV304 avb3(−) cell adhesion to fibronectin. Briefly: Cell adhesion to fibronectin (data not shown). Also noted: effect on cell adhesion to fibronectin: dose or concentration left out as unconfirmed. It counts as cell-based. The procedure:
The extent to which the L1 polypeptide or L1-RGD peptide alters adhesivity between endothelial cells, or endothelial cells and the subendothelial matrix remains to be determined. However, at a high molarity (250 uM) the L1-RGD peptide abrogated 30-40% of HDMEC or ECV304 avb3(−) cell adhesion to fibronectin (data not shown). […] This would certainly be consistent with the fact that both αvβ3 and αvβ1 can promote cell adhesion or spreading on fibronectin^37-38.

The target of assay [4] is T1, αvβ1 expressed by endothelial cells (Homo sapiens, UniProt P05556+P06756).
T1 construct: αvβ1 expressed by endothelial cells; endogenous in cells
T1 sequence (P06756 31-889 limits assumed): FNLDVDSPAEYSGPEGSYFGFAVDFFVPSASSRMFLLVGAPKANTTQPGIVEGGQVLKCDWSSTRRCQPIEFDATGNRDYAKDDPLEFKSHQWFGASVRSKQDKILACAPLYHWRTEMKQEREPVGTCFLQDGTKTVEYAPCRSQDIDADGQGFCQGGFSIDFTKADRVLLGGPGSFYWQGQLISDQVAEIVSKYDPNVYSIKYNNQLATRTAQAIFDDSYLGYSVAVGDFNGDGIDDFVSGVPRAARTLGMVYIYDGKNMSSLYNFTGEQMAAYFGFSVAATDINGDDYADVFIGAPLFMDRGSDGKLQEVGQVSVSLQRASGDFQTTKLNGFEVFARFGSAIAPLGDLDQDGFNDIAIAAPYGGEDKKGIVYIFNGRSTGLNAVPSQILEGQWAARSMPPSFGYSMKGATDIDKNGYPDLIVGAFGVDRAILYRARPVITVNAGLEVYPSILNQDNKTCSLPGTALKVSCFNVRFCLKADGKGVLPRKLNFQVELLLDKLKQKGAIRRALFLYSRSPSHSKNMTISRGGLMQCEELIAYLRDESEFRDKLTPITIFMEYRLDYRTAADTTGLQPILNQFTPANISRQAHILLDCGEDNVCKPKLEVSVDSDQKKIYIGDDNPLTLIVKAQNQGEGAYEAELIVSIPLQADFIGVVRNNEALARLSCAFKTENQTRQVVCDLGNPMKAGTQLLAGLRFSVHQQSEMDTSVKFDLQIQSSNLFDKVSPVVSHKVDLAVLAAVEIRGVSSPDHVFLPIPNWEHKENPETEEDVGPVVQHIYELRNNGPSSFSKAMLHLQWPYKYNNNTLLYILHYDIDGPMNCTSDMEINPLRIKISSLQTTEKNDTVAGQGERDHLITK
T1 sequence (P06756 891-1048 limits assumed): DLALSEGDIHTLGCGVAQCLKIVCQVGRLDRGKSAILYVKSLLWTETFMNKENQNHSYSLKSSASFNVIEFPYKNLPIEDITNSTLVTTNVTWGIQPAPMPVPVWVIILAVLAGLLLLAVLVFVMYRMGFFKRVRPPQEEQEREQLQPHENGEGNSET
T1 sequence (P05556 21-798): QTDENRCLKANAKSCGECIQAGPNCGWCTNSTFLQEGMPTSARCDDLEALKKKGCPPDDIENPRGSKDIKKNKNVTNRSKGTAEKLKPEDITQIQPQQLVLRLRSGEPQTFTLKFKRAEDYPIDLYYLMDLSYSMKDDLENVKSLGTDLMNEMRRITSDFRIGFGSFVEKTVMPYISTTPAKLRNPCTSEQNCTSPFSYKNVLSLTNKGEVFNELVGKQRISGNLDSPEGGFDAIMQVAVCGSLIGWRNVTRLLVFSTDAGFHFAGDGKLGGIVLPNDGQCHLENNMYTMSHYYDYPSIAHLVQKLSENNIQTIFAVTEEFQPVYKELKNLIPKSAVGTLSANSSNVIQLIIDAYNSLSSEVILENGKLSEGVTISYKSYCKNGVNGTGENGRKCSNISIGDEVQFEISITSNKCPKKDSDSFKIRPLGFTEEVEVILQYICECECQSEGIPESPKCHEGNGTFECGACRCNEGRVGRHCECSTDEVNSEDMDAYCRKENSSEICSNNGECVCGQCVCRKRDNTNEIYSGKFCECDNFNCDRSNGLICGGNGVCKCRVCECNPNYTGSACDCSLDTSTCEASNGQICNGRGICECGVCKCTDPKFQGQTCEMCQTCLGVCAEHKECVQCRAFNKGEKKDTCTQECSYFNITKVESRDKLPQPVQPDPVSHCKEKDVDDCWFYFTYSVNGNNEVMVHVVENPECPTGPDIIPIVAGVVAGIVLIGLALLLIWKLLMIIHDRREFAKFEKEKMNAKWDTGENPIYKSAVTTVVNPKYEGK
The settings on record: reference 18; cited from earlier work.

For “PSITWRADGRDLQEL [15-mer L1 peptide containing the mutation RGD to RAD; control peptide]”, in assay [1] (L1 peptides, 0.01-5 mg/disc), the “angiogenic activity compared with an equivalent concentration of the wildtype peptide” value is “significantly less proangiogenic” and the “induction of angiogenic response (vessel branch points)” value is “some angiogenic activity”. Further, in assay [2], the integrin-binding activity result is “retained some integrin-binding activity”.
For PSITWRGDGRDLQEL [L1-RGD peptide], the “induction of angiogenic response (vessel branch points)” value in assay [1] (L1 peptides, 0.01-5 mg/disc) is “proangiogenic”. Besides, in assay [1] (high concentration of peptide or antibody), the “angiogenic response at high concentration” value was “not effective”. In addition, in assay [3] (250 uM peptide, HDMEC or ECV304 avb3(−) cells), the “cell adhesion to fibronectin abrogated” value was 30-40%. For the same sequence, in assay [3] (lower proangiogenic concentrations), the “effect on cell adhesion to fibronectin” value is reported as “did not overtly prevent adhesion”. In addition, the “recognition by αvβ1” value in assay [4] was “recognized by αvβ1”.
